Experiments:
[1] = target: anti-METH monoclonal antibody (mAb) generated from mice immunized with (+)-METH HSMO9 BSA MCV; assay: mAb affinity; assay type: binding, Mus musculus
[2] = target: anti-METH monoclonal antibody (mAb) generated from mice immunized with (+)-METH HSMO9 BSA MCV; assay: mAb affinity; assay type: binding, Mus musculus; remark: listed apart in the source

| Compound | Ki [1] [nM] | Kd [2] [nM] |
| --- | --- | --- |
| CN[C@@H](C)Cc1ccc2c(c1)OCO2 [(+)-MDMA] | 1.1 |  |
| CN[C@@H](C)Cc1ccccc1 [(+)-METH] |  | 6.8 |

— PMC3141093 (2011)
